Source: paper PMC5986797, “Laminin heparin-binding peptides bind to several growth factors and enhance diabetic wound healing” (Nature Communications, 2018)

System: full-thickness back-skin wounds in db/db mice
Experiment: Retention of VEGF-A165 at the wound site
Assay type: in vivo, mouse
Settings: 3 days after treatment, fibrin matrix with 200 ng/wound VEGF-A165 and 2 µM peptide vs without peptide, ELISA
Method: Ten C57BLKS/J-m/Lepr db (db/db) mice (The Jackson laboratory) aged 10–11 weeks were used. Their backs were shaved and four full-thickness punch-biopsy wounds (6 mm in diameter) were created in each mouse. Directly after, fibrin matrices [80 µL in total, fibrinogen (10 mg/mL), 2 U/mL human thrombin, 4 U/mL factor XIII, 5 mM calcium chloride, 2 µM α2PI1–8-LAMA3_3043–3067, and 200 ng of recombinant human VEGF-A165] were polymerized on the wounds. To avoid drying of the matrices, the wounds were covered with non-adhering dressing (Adaptic, Johnson&Johnson), and then with adhesive film dressing (Hydrofilm, Hartmann). After 3 or 6 days, mice were sacrificed. The wounds were punched again, in order to recover the fibrinous matrices. Moreover, the tissue surrounding the wounds (2 mm beyond the wound margin) was removed. The tissue was transferred in 0.9 mL of tissue T-PER Tissue Protein Extraction Reagent (Thermo Scientific) containing 1 mg/mL of collagenase IV (Sigma-Aldrich), and homogenized with a tissue homogenizer. […] Recombinant human VEGF-A165 remaining in the fibrinous matrix and in the tissue surrounding the wound was quantified by ELISA (DuoSet, R&D Systems), using 200 ng of recombinant human VEGF-A165 as 100%. […]

## NQEQVSPLRLVFALGTDGKKLRIKSKEKCNDGK [α2PI1–8-LAMA3_3043–3067]
  amount of VEGF-A165 remaining in the wounds: significantly enhanced
